Where two headings read alike, the source gives them in different places.
Tests used:
[1] = molecular target: T1, DNA-PK phosphorylation at Serine 2056 (Homo sapiens, UniProt P78527); assay: Cellular Assay for Inhibition of DNA-PK Phosphorylation at Serine 2056 in FaDu cells (sandwich ELISA, neocarzinostatin); assay type: cell-based; details: pSer2056 DNA-PK
T1 construct: FaDu cells were purchased from ATCC; host or cells: FaDu
Outline: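 pSer2056 and total DNA-PK were measured by sandwich ELISA in BCA-normalised FaDu lysates. Cells had 1 h compound exposure (0.3% DMSO), then 2 h with 1 μg/mL final neocarzinostatin. IC50 was fitted (variable slope) to % inhibition scaled against NCS-stimulated and DMSO-only controls.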

[2] = molecular target: T2, DNA-PK (Homo sapiens, UniProt P78527); assay: DNA-PK Assay for Biochemical Enzymatic Inhibition (ADP Glo Kinase assay); details: DNA-PK enzyme, Table 1
T2 construct: purchased Invitrogen PR9107A
Procedure: A biochemical assay was performed to identify IC50 values against DNA-PK activity in a two-step reaction with a kinase reaction followed by ADP Glo™ Kinase assay Kit (Promega V9102).
Three-fold serial dilutions of compounds in DMSO were prepared in kinase assay buffer (50 mM HEPES pH 7.5, 20 mM MgCl2, 100 mM KCl, 50 μM DTT, 10 μg/ml calf thymus DNA, 0.01% Tween 20). Kinase assay buffer was used to prepare compound treatments to 0.02% DMSO (dimethyl sulphoxide) content. DMSO controls were prepared to produce a maximum and minimum luminescence signal for normalization. Substrate (Anaspec, AS-60210-5) and ATP (Promega V9102) and ATP mix was prepared by dilution in kinase assay buffer for 434.4 μM and 64.4 μM final assay concentrations, respectively. Compounds and control were added to 25 ng DNA-PK enzyme (Invitrogen, PR9107A) diluted in kinase buffer in assay plate (Corning 267459) and incubated for 15 minutes at room temperature prior to addition of substrate and ATP mix.
Throughout the assay, each time a reagent was added to the microplate, it was centrifuged for 1 minute at 1300 rcf. All reagents were added, and incubations carried out at room temperature. The reaction was then incubated for 60 minutes. ADP-ATP standards at 0, 4, 10, 40, 80, and 100% ADP (prepared as specified in the ADP Glo™ Kinase assay kit) were also added to the microplate at a volume equal to the total kinase reaction. The ADP Glo™ Kinase Assay kit was then used to quantify DNA-PK activity: following the 60-minute incubation, a 1:1 volume of ADP Glo reagent was added to all wells, then following a further 45-minute incubation, a 1:1 volume of Kinase Detection Reagent was added to all wells. After this two-step assay, plates were incubated in a Synergy-Neo2 plate reader for 30 minutes with gentle shaking, followed by endpoint luminescent read Luminescence data was normalized by subtracting the background signal and expressing all background-adjusted values as a percentage of the average maximum signal. The data was then expressed as percent inhibition by subtracting from 100% (i.e. maximum luminescent signal will be 0% inhibition) and the resulting data plotted against ten concentration points on a logarithmic scale, using GraphPad Prism. Non-linear regression analysis was performed on each concentration response curve and the log [inhibitor] vs response—variable slope (four parameters) equation was selected to generate IC50 values.

[3] = tested on: FaDu cell line; assay: Prodrug Activation in Hypoxic Stirred Tumour Cell Suspensions; details: 10 μM, 4 hours
[4] = tested on: pH2AX induction in HCT116 ATM-/- multicellular tumour spheroids; assay: Prodrug Radiation Sensitization in Multicellular Tumour Spheroids, inhibition of pH2AX induction following radiation; assay type: cell-based; details: Homo sapiens, HCT-116, 20 Gy
Outline: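 Endpoint: pH2AX (ser 139) or pDNA-PK (ser 2056) in cryosections fixed 1 or 2 h after 20 Gy, comparing oxygenated outer with hypoxic inner layers. Spheroids of ~0.5 mm (HCT116, FaDu; ATM-deficient cells used) held at 20% or 5% O2, 37 °C, stirred. Prodrug range 3.5 nM–10 μM.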

[5] = 5% O2, inner layers, read-out: Prodrug 5% O2 Inner layers EC50
[6] = 5% O2, outer layers, read-out: Prodrug 5% O2 Outer layers EC50
[7] = 20% O2, outer layers, read-out: Prodrug 20% O2 Outer layers EC50

| Compound | IC50 ([1]; neocarzinostatin 1 μg/mL, Table 1) | IC50 [2] | IC50 ([1]; Table 3) | Fraction of prodrug converted to active form, Hypoxic 0.2% O2 [3] | Fraction of prodrug converted to active form, Oxic 5% O2 [3] | EC50 [4, 5] | EC50 [4, 6] | EC50 [4, 7] |
| --- | --- | --- | --- | --- | --- | --- | --- | --- |
| COCC(=O)N[C@H]1CC[C@@H](Oc2nc(N3CCOCC3)cc3ncccc23)CC1 [Compound 105, 2-Methoxy-N-((1s,4s)-4-((7-morpholino-1,6-naphthyridin-5-yl)oxy)cyclohexyl)acetamide] | 0.1 to 1 µM | 1 to 10 nM |  |  |  |  |  |  |
| CCNC(=O)c1cnc2cc(N3CCOCC3)nc(O[C@H]3CC[C@@H](n4ccnc4)CC3)c2c1 [Compound 168, 5-(((1s,4s)-4-(1H-imidazol-1-yl)cyclohexyl)oxy)-N-ethyl-7-morpholino-1,6-naphthyridine-3-carboxamide] |  | 10 to 150 nM |  |  |  |  |  |  |
| CN(C)C(=O)c1cnc2cc(N3CCOCC3)nc(O[C@H]3CC[C@@H](n4ccnc4)CC3)c2c1 [Compound 170, 5-(((1s,4s)-4-(1H-imidazol-1-yl)cyclohexyl)oxy)-N,N-dimethyl-7-morpholino-1,6-naphthyridine-3-carboxamide] |  | 10 to 150 nM |  |  |  |  |  |  |
| CN(C)CC(=O)N[C@H]1CC[C@@H](Oc2nc(N3CCOCC3)cc3ncccc23)CC1 [Compound 106, 2-(Dimethylamino)-N-((1s,4s)-4-((7-morpholino-1,6-naphthyridin-5-yl)oxy)cyclohexyl)acetamide] |  | 10 to 150 nM |  |  |  |  |  |  |
| FC1(F)CN(c2cc3ncccc3c(O[C@H]3CC[C@@H](n4ccnc4)CC3)n2)CC(F)(F)O1 [Compound 13, 4-(5-(((1s,4s)-4-(1H-imidazol-1-yl)cyclohexyl)oxy)-1,6-naphthyridin-7-yl)-2,2,6,6-tetrafluoromorpholine] |  | 10 to 150 nM |  |  |  |  |  |  |
| CN(C)C(=N[C@H]1CC[C@@H](Oc2nc(N3CCOCC3)cc3ncccc23)CC1)N(C)C [Compound 129, 1,1,3,3-tetramethyl-2-((1s,4s)-4-((7-morpholino-1,6-naphthyridin-5-yl)oxy)cyclohexyl)guanidine] |  | 10 to 150 nM |  |  |  |  |  |  |
| CC(C)(O)C#Cc1cnc2cc(N3CCOCC3)nc(O[C@H]3CC[C@@H](n4ccnc4)CC3)c2c1 [Compound 159, 4-(5-(((1s,4s)-4-(1H-imidazol-1-yl)cyclohexyl)oxy)-7-morpholino-1,6-naphthyridin-3-yl)-2-methylbut-3-yn-2-ol] |  | 10 to 150 nM |  |  |  |  |  |  |

Now from value to molecule, other results behind:

| IC50 ([1]; neocarzinostatin 1 μg/mL, Table 1) | IC50 [2] | IC50 ([1]; Table 3) | Fraction of prodrug converted to active form, Hypoxic 0.2% O2 [3] | Fraction of prodrug converted to active form, Oxic 5% O2 [3] | Compound | EC50 [4, 5] | EC50 [4, 6] | EC50 [4, 7] |
| --- | --- | --- | --- | --- | --- | --- | --- | --- |
|  |  | 10 to 30 µM | A (A is 0.15 to 1) | C (C is 0.02 to 0.05) | CN1CCN(c2cnc(N[C@H]3CC[C@@H](Oc4nc(N5CCOCC5)cc5ncc(OCc6cnc([N+](=O)[O-])n6C)cc45)CC3)nc2)CC1 [LFA2065, N-[4-[[3-[(3-methyl-2-nitro-imidazol-4-yl)methoxy]-7-morpholino-1,6-naphthyridin-5-yl]oxy]cyclohexyl]-5-(4-methylpiperazin-1-yl)pyrimidin-2-amine] | 10 to 500 nM | 1000 to 10000 nM | 1000 to 10000 nM |
|  |  | 1 to 10 µM | B (B is 0.05 to 0.15) | B (B is 0.05 to 0.15) | CN(C)CCOc1cnc(N[C@H]2CC[C@@H](Oc3nc(N4CCOCC4)cc4ncc(N(Cc5cnn(C)c5[N+](=O)[O-])S(C)(=O)=O)cc34)CC2)nc1 [LFA2075, N-[5-[4-[[5-[2-(dimethylamino)ethoxy]pyrimidin-2-yl]amino]cyclohexoxy]-7-morpholino-1,6-naphthyridin-3-yl]-N-[(1-methyl-5-nitro-pyrazol-4-yl)methyl]methanesulfonamide] | 10 to 500 nM | 500 to 1000 nM | 1000 to 10000 nM |
|  | 10 to 150 nM |  |  |  | O=C(NC1CCOCC1)[C@H]1CC[C@@H](Oc2nc(N3CCOCC3)cc3ncccc23)CC1 [Compound 154b, (1S,4S)-4-((7-morpholino-1,6-naphthyridin-5-yl)oxy)-N-(tetrahydro-2H-pyran-4-yl)cyclohexane-1-carboxamide] |  |  |  |
|  |  | 10 to 30 µM | A (A is 0.15 to 1) | D (D is 0 to 0.02) | CC(c1cnc([N+](=O)[O-])n1C1CC1)N(c1cnc2cc(N3CCOCC3)nc(OC3CCC(Nc4ccn5nccc5n4)CC3)c2c1)S(C)(=O)=O (stereo not drawn) [LFA2051, N-[1-(3-cyclopropyl-2-nitro-imidazol-4-yl)ethyl]-N-[7-morpholino-5-[4-(pyrazolo[1,5-a]pyrimidin-5-ylamino)cyclohexoxy]-1,6-naphthyridin-3-yl]methanesulfonamide] | 10 to 500 nM | 1000 to 10000 nM | 1000 to 10000 nM |
|  |  | 10 to 30 µM | B (B is 0.05 to 0.15) | D (D is 0 to 0.02) | Cn1c(CN(c2cnc3cc(N4CCOCC4)nc(OC4CCC(Nc5ncc(N6CCN(CC(F)F)CC6)cn5)CC4)c3c2)S(C)(=O)=O)cnc1[N+](=O)[O-] (stereo not drawn) [LFA2048, N-[5-[4-[[5-[4-(2,2-difluoroethyl)piperazin-1-yl]pyrimidin-2-yl]amino]cyclohexoxy]-7-morpholino-1,6-naphthyridin-3-yl]-N-[(3-methyl-2-nitro-imidazol-4-yl)methyl]methanesulfonamide] | 500 to 1000 nM | 1000 to 10000 nM | 500 to 1000 nM |
|  |  | 0.1 to 1 µM | B (B is 0.05 to 0.15) | D (D is 0 to 0.02) | Cc1cc(C)nc(N[C@H]2CC[C@@H](Oc3nc(N4CCOCC4)cc4ncc(N(Cc5cnc([N+](=O)[O-])n5C)S(C)(=O)=O)cc34)CC2)n1 [LFA2098, N-[5-[4-[(4,6-dimethylpyrimidin-2-yl)amino]cyclohexoxy]-7-morpholino-1,6-naphthyridin-3-yl]-N-[(3-methyl-2-nitro-imidazol-4-yl)methyl]methanesulfonamide] | 1000 to 10000 nM | 1000 to 10000 nM | 1000 to 10000 nM |
|  |  | 10 to 30 µM | B (B is 0.05 to 0.15) | D (D is 0 to 0.02) | CC(c1cnc([N+](=O)[O-])n1C)N(c1cnc2cc(N3CCOCC3)nc(O[C@H]3CC[C@@H](Nc4ncc(OCCN(C)C)cn4)CC3)c2c1)S(C)(=O)=O (stereo partly drawn) [LFA2061, N-[5-[4-[[5-[2-(dimethylamino)ethoxy]pyrimidin-2-yl]amino]cyclohexoxy]-7-morpholino-1,6-naphthyridin-3-yl]-N-[1-(3-methyl-2-nitro-imidazol-4-yl)ethyl]methanesulfonamide] | 500 to 1000 nM | 1000 to 10000 nM | 10000 to 100000 nM |
|  |  | 1 to 10 µM | B (B is 0.05 to 0.15) | B (B is 0.05 to 0.15) | CC(c1cnn(C)c1[N+](=O)[O-])N(c1cnc2cc(N3CCOCC3)nc(O[C@H]3CC[C@@H](Nc4ncc(OCCN5CCOCC5)cn4)CC3)c2c1)S(C)(=O)=O (stereo partly drawn) [LFA2077, N-[1-(1-methyl-5-nitro-pyrazol-4-yl)ethyl]-N-[7-morpholino-5-[4-[[5-(2-morpholinoethoxy)pyrimidin-2-yl]amino]cyclohexoxy]-1,6-naphthyridin-3-yl]methanesulfonamide] | 10 to 500 nM | 500 to 1000 nM | 10 to 500 nM |
|  |  | 10 to 30 µM | A (A is 0.15 to 1) | C (C is 0.02 to 0.05) | Cn1c(COc2cnc3cc(N4CCOCC4)nc(O[C@H]4CC[C@@H](Nc5ccccn5)CC4)c3c2)cnc1[N+](=O)[O-] [LFA2083, N-[4-[[3-[(3-methyl-2-nitro-imidazol-4-yl)methoxy]-7-morpholino-1,6-naphthyridin-5-yl]oxy]cyclohexyl]pyridin-2-amine] | 10 to 500 nM | 1000 to 10000 nM | 1000 to 10000 nM |

Reference: patent publication US20240239790A1, “7-Morpholino-1,6-Naphthyridin-5-yl Derivatives and Pharmaceutical Compositions Thereof Useful as DNA-PK Inhibitor” (adMare Therapeutics Society, priority 2021, published 2024)
